Data published in paper PMC7462985, “Inhibitors of BRAF dimers using an allosteric site” (Nature Communications, 2020).

Assays:
[1] = biological target: T1, FGFR1 (Homo sapiens, UniProt P11362); experiment: KINOMEscan scanEDGE binding; set-up: purchased Eurofins/DiscoverX KINOMEscan (scanEDGE panel); conditions: KinomeEDGE scan, compound at 1 μΜ
[2] = biological target: T2, CDK7 (Homo sapiens, UniProt P50613); experiment: KINOMEscan scanEDGE binding; conditions: KinomeEDGE scan, compound at 1 μΜ
T2 construct: purchased Eurofins/DiscoverX KINOMEscan (scanEDGE panel)
T2 sequence (P50613 whole entry): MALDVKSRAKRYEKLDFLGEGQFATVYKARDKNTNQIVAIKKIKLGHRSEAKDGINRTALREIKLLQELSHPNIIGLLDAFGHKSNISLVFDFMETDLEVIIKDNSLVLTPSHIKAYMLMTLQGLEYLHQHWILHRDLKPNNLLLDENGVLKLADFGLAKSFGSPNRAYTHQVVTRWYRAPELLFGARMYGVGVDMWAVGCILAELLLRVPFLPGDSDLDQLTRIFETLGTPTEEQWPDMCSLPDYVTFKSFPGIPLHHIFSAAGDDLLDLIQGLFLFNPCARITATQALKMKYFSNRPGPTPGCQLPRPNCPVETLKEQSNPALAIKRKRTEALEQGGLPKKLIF

[3] = biological target: T3, FGFR3 (Homo sapiens, UniProt P22607); experiment: KINOMEscan scanEDGE binding; conditions: KinomeEDGE scan, compound at 1 μΜ
T3 construct: purchased Eurofins/DiscoverX KINOMEscan (scanEDGE panel)
T3 sequence (P22607 23-806): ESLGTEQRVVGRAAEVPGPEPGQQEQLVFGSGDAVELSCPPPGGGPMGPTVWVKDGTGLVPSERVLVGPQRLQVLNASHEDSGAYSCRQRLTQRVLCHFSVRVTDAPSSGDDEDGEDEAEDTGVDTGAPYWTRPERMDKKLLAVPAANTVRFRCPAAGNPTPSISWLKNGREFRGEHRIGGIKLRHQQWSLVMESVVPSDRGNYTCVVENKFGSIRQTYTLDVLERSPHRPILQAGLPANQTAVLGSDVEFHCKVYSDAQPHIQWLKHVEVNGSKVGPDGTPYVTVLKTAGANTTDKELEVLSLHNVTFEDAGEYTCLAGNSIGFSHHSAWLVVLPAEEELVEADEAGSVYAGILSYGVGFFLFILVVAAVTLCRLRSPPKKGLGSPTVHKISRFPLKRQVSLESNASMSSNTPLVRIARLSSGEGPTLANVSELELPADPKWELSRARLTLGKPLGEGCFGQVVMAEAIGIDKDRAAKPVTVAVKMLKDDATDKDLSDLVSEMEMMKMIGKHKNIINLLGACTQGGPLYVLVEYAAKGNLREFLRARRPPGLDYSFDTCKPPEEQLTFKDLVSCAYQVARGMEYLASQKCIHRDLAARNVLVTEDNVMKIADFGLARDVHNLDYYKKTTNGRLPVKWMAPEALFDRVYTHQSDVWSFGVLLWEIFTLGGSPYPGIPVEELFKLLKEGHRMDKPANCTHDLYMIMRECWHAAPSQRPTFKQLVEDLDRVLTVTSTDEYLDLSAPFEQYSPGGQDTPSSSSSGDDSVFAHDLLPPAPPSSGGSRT

[4] = biological target: T4, PKAC-alpha (Homo sapiens, UniProt P17612); experiment: KINOMEscan scanEDGE binding; conditions: KinomeEDGE scan, compound at 1 μΜ
T4 construct: purchased Eurofins/DiscoverX KINOMEscan (scanEDGE panel)

[5] = biological target: T5, EPHA2 (Homo sapiens, UniProt P29317); experiment: KINOMEscan scanEDGE binding; conditions: KinomeEDGE scan, compound at 1 μΜ
T5 construct: purchased Eurofins/DiscoverX KINOMEscan (scanEDGE panel)
T5 sequence (P29317 24-976): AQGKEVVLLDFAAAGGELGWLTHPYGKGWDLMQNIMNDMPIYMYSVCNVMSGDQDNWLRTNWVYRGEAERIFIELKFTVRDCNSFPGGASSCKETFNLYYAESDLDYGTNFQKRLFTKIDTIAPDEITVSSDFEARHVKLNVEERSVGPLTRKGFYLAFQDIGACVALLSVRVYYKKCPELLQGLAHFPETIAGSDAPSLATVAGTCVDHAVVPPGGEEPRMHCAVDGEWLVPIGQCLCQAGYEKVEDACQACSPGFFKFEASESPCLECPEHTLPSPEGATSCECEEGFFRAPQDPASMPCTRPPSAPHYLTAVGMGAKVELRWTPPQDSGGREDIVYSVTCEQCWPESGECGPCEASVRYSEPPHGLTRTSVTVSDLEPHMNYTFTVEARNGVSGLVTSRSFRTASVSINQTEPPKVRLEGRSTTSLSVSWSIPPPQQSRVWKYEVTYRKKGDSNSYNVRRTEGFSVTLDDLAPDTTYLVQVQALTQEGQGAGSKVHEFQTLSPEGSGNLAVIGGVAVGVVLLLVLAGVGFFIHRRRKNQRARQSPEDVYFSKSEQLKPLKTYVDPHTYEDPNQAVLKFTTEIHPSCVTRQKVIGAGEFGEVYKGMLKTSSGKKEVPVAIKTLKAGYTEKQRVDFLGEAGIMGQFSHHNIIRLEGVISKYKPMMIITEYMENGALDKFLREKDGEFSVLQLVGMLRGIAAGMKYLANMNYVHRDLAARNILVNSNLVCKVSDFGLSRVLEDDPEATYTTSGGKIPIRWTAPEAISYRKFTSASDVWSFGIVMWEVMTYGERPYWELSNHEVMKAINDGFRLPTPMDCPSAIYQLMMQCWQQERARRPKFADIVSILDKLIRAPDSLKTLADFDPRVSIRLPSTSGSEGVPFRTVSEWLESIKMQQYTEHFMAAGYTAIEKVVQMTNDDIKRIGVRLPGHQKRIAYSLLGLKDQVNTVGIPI

[6] = biological target: T6, PDFGRα (Homo sapiens, UniProt P16234); experiment: SelectScreen kinase activity assay; type: biochemical; conditions: 100 μM ATP
T6 construct: purchased Invitrogen (SelectScreen service)
T6 sequence (P16234 24-1089): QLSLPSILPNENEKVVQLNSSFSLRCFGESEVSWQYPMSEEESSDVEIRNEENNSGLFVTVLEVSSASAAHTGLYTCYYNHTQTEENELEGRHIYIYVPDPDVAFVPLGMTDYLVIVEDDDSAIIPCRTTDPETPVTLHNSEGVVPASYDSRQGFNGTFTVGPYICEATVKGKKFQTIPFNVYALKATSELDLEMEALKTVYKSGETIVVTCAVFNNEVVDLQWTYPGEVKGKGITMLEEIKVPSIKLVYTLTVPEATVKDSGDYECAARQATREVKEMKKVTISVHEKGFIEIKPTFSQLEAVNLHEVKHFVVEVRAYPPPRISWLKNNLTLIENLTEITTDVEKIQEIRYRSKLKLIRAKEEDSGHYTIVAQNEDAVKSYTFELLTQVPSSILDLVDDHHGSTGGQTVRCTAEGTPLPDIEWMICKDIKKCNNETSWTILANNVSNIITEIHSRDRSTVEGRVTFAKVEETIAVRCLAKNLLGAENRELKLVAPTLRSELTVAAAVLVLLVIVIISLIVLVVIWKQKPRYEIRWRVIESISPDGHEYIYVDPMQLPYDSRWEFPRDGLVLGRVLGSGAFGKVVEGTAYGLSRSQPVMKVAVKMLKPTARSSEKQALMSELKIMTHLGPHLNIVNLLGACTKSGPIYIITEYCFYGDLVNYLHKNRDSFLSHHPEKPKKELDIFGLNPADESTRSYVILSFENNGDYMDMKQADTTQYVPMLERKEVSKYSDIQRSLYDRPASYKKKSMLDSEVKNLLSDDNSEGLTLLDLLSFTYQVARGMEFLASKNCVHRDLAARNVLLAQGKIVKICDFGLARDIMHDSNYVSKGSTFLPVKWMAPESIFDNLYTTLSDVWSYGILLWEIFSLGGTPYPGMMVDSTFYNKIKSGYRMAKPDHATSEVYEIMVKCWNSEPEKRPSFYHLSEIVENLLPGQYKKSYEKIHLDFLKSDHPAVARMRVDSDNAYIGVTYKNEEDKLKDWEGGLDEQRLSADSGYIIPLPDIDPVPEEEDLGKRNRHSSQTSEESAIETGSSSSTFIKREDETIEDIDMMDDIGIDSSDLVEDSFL
Protocol: (§2) BRAF kinase assays were performed using the Z’-LYTE™ enzymatic assay (Invitrogen, USA). […] Titrations were performed using a 1:3 dilution. Assays were performed using SelectScreen (Invitrogen).

[7] = biological target: T7, ACVR1B (Homo sapiens, UniProt P36896); experiment: KINOMEscan scanEDGE binding; conditions: KinomeEDGE scan, compound at 1 μΜ
T7 construct: purchased Eurofins/DiscoverX KINOMEscan (scanEDGE panel)
T7 sequence (P36896 24-505): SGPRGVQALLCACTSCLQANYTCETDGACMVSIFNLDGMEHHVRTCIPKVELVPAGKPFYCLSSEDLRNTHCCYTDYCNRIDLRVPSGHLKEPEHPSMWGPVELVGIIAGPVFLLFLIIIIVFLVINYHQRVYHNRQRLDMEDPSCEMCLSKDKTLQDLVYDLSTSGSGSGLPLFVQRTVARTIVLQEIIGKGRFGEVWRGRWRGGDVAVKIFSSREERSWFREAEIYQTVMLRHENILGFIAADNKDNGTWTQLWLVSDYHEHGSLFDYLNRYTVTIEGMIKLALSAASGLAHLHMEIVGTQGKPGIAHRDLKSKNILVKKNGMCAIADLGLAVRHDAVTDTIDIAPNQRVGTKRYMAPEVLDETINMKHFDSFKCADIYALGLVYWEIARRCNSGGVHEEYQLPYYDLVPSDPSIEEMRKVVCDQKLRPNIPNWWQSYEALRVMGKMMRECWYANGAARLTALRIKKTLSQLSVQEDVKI

[8] = biological target: T8, ABL1-phosphorylated (Homo sapiens, UniProt P00519); experiment: KINOMEscan scanEDGE binding; conditions: KinomeEDGE scan, compound at 1 μΜ
T8 construct: purchased Eurofins/DiscoverX KINOMEscan (scanEDGE panel)

[9] = system: HEK293H cells expressing p61BRAF^V600E/R509H; experiment: p-ERK inhibition in transfected HEK293H cells; type: cell-based; conditions: HEK293-H, 1 μM lapatinib pre-treatment 1 h, PHI1 1 h, read-out: IC50 of pERK inhibition
Protocol: (§1) HEK239H cells were seeded in 6-well plates (1 × 10^6 cells per well) and transfected the following day using Lipofectamine 3000 (Invitrogen L3000008) according to the manufacturer’s instructions. 2 μg of p61BRAF^V600E plasmid (pcDNA-3 vector) DNA per well was employed. […] ERK signaling and BRAF^V600E expression was assessed by western blot. […] In addition, HEK239H cells seeded in 6-well plates (1 × 10^6 cells per well) were transfected with Lipofectamine 3000 containing 2 μg of p61BRAF^V600E plasmid or 2 μg of p61BRAF^V600ER509H plasmid (pcDNA-3 vector) DNA per well. 24 h after transfection cells were treated with DMSO or increasing concentrations of PHI1 for 1 h and ERK signaling, and BRAF expression was assessed by western blot.

[10] = system: HEK293H cells expressing p61BRAF^V600E; experiment: p-ERK inhibition in transfected HEK293H cells; type: cell-based; conditions: HEK293-H, 1 μM lapatinib pre-treatment 1 h, PHI1 1 h, read-out: IC50 of pERK inhibition
Protocol: as §1

[11] = biological target: T9, ABL1 (Homo sapiens, UniProt P00519); experiment: SelectScreen kinase activity assay; type: biochemical; conditions: 100 μM ATP
T9 construct: purchased Invitrogen (SelectScreen service)
Protocol: as §2

[12] = biological target: T10, ABL1-nonphosphorylated (Homo sapiens, UniProt P00519); experiment: KINOMEscan scanEDGE binding; conditions: KinomeEDGE scan, compound at 1 μΜ
T10 construct: purchased Eurofins/DiscoverX KINOMEscan (scanEDGE panel)

[13] = biological target: T1, FGFR1; experiment: SelectScreen kinase activity assay; type: biochemical; set-up: purchased Invitrogen (SelectScreen service)
Protocol: as §2

T1 sequence (P11362 22-822): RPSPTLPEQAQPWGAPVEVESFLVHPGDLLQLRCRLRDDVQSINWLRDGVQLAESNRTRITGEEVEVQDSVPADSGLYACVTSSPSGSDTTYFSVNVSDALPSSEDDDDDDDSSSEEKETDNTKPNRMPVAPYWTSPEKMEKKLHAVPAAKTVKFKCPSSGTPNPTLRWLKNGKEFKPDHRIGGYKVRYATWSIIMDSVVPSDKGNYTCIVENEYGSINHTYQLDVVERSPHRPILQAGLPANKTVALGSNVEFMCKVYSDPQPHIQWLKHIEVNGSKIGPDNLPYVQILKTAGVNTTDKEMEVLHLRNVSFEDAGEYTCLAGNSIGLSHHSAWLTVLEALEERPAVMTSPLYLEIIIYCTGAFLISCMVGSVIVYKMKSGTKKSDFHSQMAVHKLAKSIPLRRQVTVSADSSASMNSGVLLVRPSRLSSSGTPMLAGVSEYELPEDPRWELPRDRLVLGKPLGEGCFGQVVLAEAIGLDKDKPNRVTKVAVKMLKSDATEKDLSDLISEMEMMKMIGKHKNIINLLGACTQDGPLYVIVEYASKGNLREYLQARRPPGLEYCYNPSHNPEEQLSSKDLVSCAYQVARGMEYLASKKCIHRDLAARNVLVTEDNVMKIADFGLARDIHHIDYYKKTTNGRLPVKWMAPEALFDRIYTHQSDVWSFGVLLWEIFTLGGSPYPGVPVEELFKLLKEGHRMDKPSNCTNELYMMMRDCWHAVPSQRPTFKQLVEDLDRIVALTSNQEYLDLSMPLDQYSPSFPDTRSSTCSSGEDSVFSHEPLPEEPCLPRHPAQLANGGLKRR

| SMILES | % Ctrl FGFR1 [1] [% Ctrl] | % Ctrl CDK7 [2] [% Ctrl] | % Ctrl FGFR3 [3] [% Ctrl] | % Ctrl PKAC-alpha [4] [% Ctrl] | % Ctrl EPHA2 [5] [% Ctrl] | IC50 [6] [nM] | % Ctrl ACVR1B [7] [% Ctrl] | % Ctrl ABL1-phosphorylated [8] [% Ctrl] | IC50 [9] [nM] | IC50 [10] [nM] | IC50 [11] [nM] | % Ctrl ABL1-nonphosphorylated [12] [% Ctrl] | IC50 ([13]; 100 μM ATP) [nM] | reduction of inhibitory activity on FGFR compared to Ponatinib ([13]; PHI1 versus Ponatinib) [fold] |
| --- | --- | --- | --- | --- | --- | --- | --- | --- | --- | --- | --- | --- | --- | --- |
| Cc1ccc(C(=O)Nc2ccc(CN3CCN(C)CC3)c(C(F)(F)F)c2)cc1C#Cc1cnc2cccnn12 [Ponatinib, 3-[2-(imidazo[1,2-b]pyridazin-3-yl)ethynyl]-4-methyl-N-{4-[(4-methylpiperazin-1-yl)methyl]-3-(trifluoromethyl)phenyl}benzamide] | 0.15 | 6.2 | 0.9 | 8.1 | 0 |  |  |  |  |  |  |  |  |  |
| Cc1ccc(C(=O)Nc2ccc(CNCCN3CCOCC3)c(C(F)(F)F)c2)cc1C#Cc1cnc2cccnn12 [PHI1] |  |  |  |  |  | 8.3 ± 1.5 | 0.4 | 0.1 | 6800 | 1890 | 8.4 ± 0.3 | 0 | 624 ± 25 | 43 |
